Measured values reported in US20180230399A1, “ORGANIC COMPOUNDS” (GIVAUDAN SA, priority 2014, published 2018).
Where two headings read alike, the source gives them in different places.

Assays:
[1] = tested on: hepatocytes from male rats (Sprague Dawley); assay: In vitro metabolism study in rat hepatocytes in suspension, GC-MS; conditions: for Benzoic acid derivative concentration / Residual conc.: male, Sprague-Dawley, rat, 4 h, 100 μM
Description: In order to study in vitro metabolism in rat hepatocytes, Lilial™ and compounds of the present invention may be incubated in the presence of rat hepatocytes in suspension. Reduction in the concentration of Lilial™ and the compounds of the present invention and formation of any of the corresponding benzoic acid derivatives may be analysed by GC-MS.
Cryopreserved hepatocytes from male rats (Sprague Dawley; Lifetechnologies) were defrozen, washed in Cyropreserved Hepatocytes Recovery Medium (CHRM; Lifetechnologies) and suspended in Williams E Medium (WEM; Lifetechnologies). Lilial™, or the compounds of the present invention (final concentration: 100 μM) were added to the cells (1×10^6 viable cells/ml) and suspensions were incubated up to 4 hours at 37° C. on a shaker in duplicate. Metabolism of testosterone was monitored as positive control. Decrease of the test compounds and formation of the corresponding benzoic acid derivative was determined by GC-MS analysis of methyl esters formed after derivatisation with trimethylsilyl diazomethane (Sigma-Aldrich) in methanol. The test compounds react with diazomethane yielding a methyl ketone which was used for the quantification of Lilial™ and the compound of formula (I). Metabolism was stopped with ice cold 1 M HCl, samples were extracted with tert-butyl methyl ether (MTBE) and analysed by GC-MS. Incubations containing testosterone as control were also stopped with ice cold 1 M HCl, centrifuged to separate the cells, filtrated and the decrease of testosterone analysed by LC-MS. To quantify decrease of the test substances and formation of benzoic acid metabolites, calibration curves of reference materials Lilial™ and the compounds of the present invention, tert-butyl benzoic acid (Fluka) was prepared in hepatocyte incubation medium and analysed like the hepatocyte samples.

[2] = Formation of the corresponding esters with Coenzym A; type: in vitro ADME; conditions: further experiment
male rats = conditions: Hunter et al. 1965, Cagen et al. 1989; cited from earlier work
glucose synthesis = conditions: in vitro; McCune et al 1982; cited from earlier work
fatty acid synthesis = conditions: in vitro; McCune et al 1982; cited from earlier work
mice = conditions: cited from earlier work
guinea-pigs = conditions: cited from earlier work
primates = conditions: cited from earlier work

Structure (SMILES): C[C@]12CC[C@H]3[C@@H](CCC4=CC(=O)CC[C@@]43C)[C@@H]1CC[C@@H]2O [testosterone]
- Decrease of the test compound (in words) ([1]; rat hepatocytes, up to 4 hours at 37° C.): rapid decrease

Structure (SMILES): CC(C)c1ccc(CCCC=O)cc1
- Benzoic acid derivative concentration [1]: 1.4 µM
- Residual conc. [1]: 0 µM

Structure (SMILES): Cc1cc(CC(C)C)ccc1CCCC=O [Example 3, 4-(4-Isobutyl-2-methylphenyl)butanal]
- Formation of the corresponding esters with Coenzym A [2]: does not provide the formation of the corresponding esters with Coenzym A

Structure (SMILES): CC(C)(C)c1ccc(C(=O)O)cc1 [tert-Butyl benzoic acid, tert-butyl benzoic acid]
- Testicular effects (male rats): testicular effects
- Inhibition of glucose synthesis (glucose synthesis): inhibit
- Inhibition of fatty acid synthesis (fatty acid synthesis): inhibit

Structure (SMILES): CC(C)(C)c1ccc(CCCC=O)cc1
- Benzoic acid derivative concentration [1]: 1.3 µM
- Residual conc. [1]: 0.7 µM

Structure (SMILES): CC(C=O)Cc1ccc(C(C)(C)C)cc1 (stereo not shown) [Lilial™, 3-(4-tert-butylphenyl)-2-methylpropanal]
- Decrease of the test compound (in words) [1]: metabolised rapidly
- Residual conc. [1]: 0 µM
- Effects in studies (mice): No effects
- Effects in studies (guinea-pigs): No effects
- Effects in studies (primates): No effects

Structure (SMILES): CC(C)Cc1ccc(CCCC=O)cc1
- Benzoic acid derivative concentration [1]: 0.5 µM
- Residual conc. [1]: 0.2 µM
